Experimental data as given in patent US5602100A, “Dermorphin analogs having pharmacological activity” (priority 1988, dated 1997).
Where two headings read alike, the source gives them in different places. Non-standard residues stand in square brackets, D forms with d. Residues, ends and D or L forms follow the SMILES beside them. dNle = CCCC[C@@H](N)C(=O)O; dNva = CCC[C@@H](N)C(=O)O; Orn = NCCC[C@H](N)C(=O)O; Dab = NCC[C@H](N)C(=O)O; Nva = CCC[C@H](N)C(=O)O

Legend:
mouse vas deferens (MVD) = format: cell-based
hot plate stimulus = assay: Mouse hot plate test; format: in vivo; conditions: for Hot plate ED50: mouse, in vivo; for ratio of ED50 for PBQ assay over ED50 for the hot plate assay: peripheral/central activity ratio
Procedure: The mouse hot plate test is an assay which only detects centrally-mediated analgesic effects. This test was carried out using the protocol described in G. Woolfe and A. MacDonald, J. Pharmacol. Exp. Ther., 80, p. 300 ([…]).
Since most of the peptides of the invention were not potent centrally, it was impossible to determine an ED50 value. […] A result is considered insignificant if 30% of mice or lower have responded.

guinea pig ileum (GPI) [1] = format: cell-based
PBQ-induced writhing [2] = assay: Mouse writhing test (PBQ); format: in vivo; conditions: for PBQ (20 min.) ED50: dose reducing the number of writhes by 50%
Procedure: The mouse writhing test detects both peripherally and centrally mediated analgesic effects. The test procedure is described in Siegmund et al., Proc. Soc. Exp. Biol. Med., 95, p. 729 (1957). In this test, a control group of albino mice was injected intraperitoneally with 0.3 ml/20 g body weight of a 0.02% solution of 2-phenyl-1,4-benzoquinone (PBQ). The writhing and contortional movements of the mice over the following 15 minutes were recorded. A second group of mice was given a dose of a synthetic dermorphin analog according to this invention, then allowed to wait a period of time before being administered the PBQ injection. The average number of writhes was then recorded and compared to the control group. The results of this test are expressed as the dosage of peptide that reduces the number of writhes by 50% at a given time interval (referred to as ED50).

PBQ-induced writhing [3] = assay: Mouse writhing test with prior N-methyllevallorphan (NML); format: in vivo; conditions: 10 mg/kg N-methyllevallorphan before peptide
Procedure: A variation of the mouse writhing experiment was also conducted to determine peripheral versus central binding preferences of certain peptides of this invention. In this experiment, 10 mg/kg of N-methyllevallorphan (NML), a known peripheral opioid antagonist, was administered to the mice before injection of the synthetic dermorphin peptide.

guinea pig ileum (GPI) [4] = assay: Ke values for naloxone as antagonist in the GPI assay; format: cell-based; conditions: mean of three determinations ± SEM
Procedure: κ-receptor interactions were determined by measuring Ke values for naloxone as an antagonist in the GPI assay. High Ke values (in the range of 20-30 nM) are associated with κ-receptor interactions. Low Ke values (in the range of 1-2 nM) are associated with μ-receptor interactions. Ke values for naloxone were determined from the ratio of IC50 values obtained in the presence of and in the absence of a fixed naloxone concentration. The IC50 values of the tested compounds were normalized according to published procedure (F. M. Leslie, "Methods Used for the Study of Opioid Receptors", Pharmacological Reviews, 39 (1987)).

[5] = Respiration rate (respiratory depression); format: in vivo, rat; conditions: control 142 ± 5
Procedure: In addition to the mouse writhing data, respiratory depression was measured in certain treated mice. Respiratory depression is a commonly observed side effect characteristic of centrally-acting opiates. These reulsts are expressed in Table 5.

δ-opioid receptor = target: T1, δ-opioid receptor (Rattus norvegicus, UniProt P33533); assay: biochemical; format: binding
T1 construct: displacement of the radioligands from the rat brain membrane preparations; from tissue; host or cells: rat brain membrane preparations

μ-opioid receptor = target: T2, μ-opioid receptor (Rattus norvegicus, UniProt P33535); assay: biochemical; format: binding
T2 construct: displacement of the radioligands from the rat brain membrane preparations; from tissue; host or cells: rat brain membrane preparations
T2 sequence (P33535 whole entry): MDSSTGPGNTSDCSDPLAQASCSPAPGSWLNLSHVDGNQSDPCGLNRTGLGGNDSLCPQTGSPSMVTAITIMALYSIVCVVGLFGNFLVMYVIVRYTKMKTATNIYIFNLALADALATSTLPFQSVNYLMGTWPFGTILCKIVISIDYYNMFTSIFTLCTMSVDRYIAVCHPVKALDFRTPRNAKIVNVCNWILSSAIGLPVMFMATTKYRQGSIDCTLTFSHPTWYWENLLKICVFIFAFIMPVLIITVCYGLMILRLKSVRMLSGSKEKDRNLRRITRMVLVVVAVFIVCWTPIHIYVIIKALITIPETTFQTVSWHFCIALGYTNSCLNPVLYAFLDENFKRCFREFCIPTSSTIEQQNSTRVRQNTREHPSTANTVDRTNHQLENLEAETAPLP

T1 sequence (P33533 whole entry): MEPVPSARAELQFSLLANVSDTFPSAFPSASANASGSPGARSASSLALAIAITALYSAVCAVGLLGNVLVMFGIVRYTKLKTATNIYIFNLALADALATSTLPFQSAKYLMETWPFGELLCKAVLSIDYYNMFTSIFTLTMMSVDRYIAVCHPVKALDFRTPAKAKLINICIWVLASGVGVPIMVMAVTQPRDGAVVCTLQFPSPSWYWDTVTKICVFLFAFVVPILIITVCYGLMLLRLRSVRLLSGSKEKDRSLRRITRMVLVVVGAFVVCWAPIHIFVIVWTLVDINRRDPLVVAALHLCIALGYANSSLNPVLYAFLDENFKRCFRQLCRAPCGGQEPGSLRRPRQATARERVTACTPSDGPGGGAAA

Molecule | IC50 (mouse vas deferens (MVD)) | IC50 (guinea pig ileum (GPI) [1]) | PBQ (20 min.) ED50 (PBQ-induced writhing [2]) | Antagonism of antinociceptive effect by prior NML (PBQ-induced writhing [3]) | Ke (naloxone) (guinea pig ileum (GPI) [4]) | Breaths per min. ([5]; dose 30 mg/kg) | Ki (δ-opioid receptor; read-out: [3H]HSLET Ki^δ) | MVD relative potency (mouse vas deferens (MVD)) | GPI relative potency (guinea pig ileum (GPI) [1]) | MVD/GPI IC50 ratio (guinea pig ileum (GPI) [1]) | Ki (δ-opioid receptor) | Ki (μ-opioid receptor) | Ki^δ /Ki^μ (μ-opioid receptor) | % of animals showing a 50% increase (hot plate stimulus; dose 40 mg/kg, time 120 min.) | also measured
NCCCC[C@H](NC(=O)[C@H](Cc1ccccc1)NC(=O)[C@@H](CCCN=C(N)N)NC(=O)[C@@H](N)Cc1ccc(O)cc1)C(N)=O [BCH-150, H-Tyr-D-Arg-Phe-Lys-NH2] | 781 ± 146 nM | 338 ± 41 nM | 0.65 mg/kg | partially or totally antagonized | 1.17 ± 0.08 nm | 121 ± 6 breaths per min. | 19200 nM | – | – | – | – | – | – | – | Hot plate ED50 (hot plate stimulus): 19 mg/kg
N=C(N)NCCC[C@@H](NC(=O)[C@@H](N)Cc1ccc(O)cc1)C(=O)N[C@@H](Cc1ccccc1)C(=O)N[C@@H](CCN)C(N)=O [BCH-1764, H-Tyr-D-Arg-Phe-A2 bu-NH2] (H-Y[dR]F[Dab]-NH2) | 659 ± 123 nM | 257 ± 56 nM | 0.13 mg/kg | – | 1.32 ± 0.05 nm | – | – | 0.0173 ± 0.0032 | 0.956 ± 0.208 | 2.56 | 12600 nM | 5.78 nM | 2180 | – | % of animals showing a 50% increase (hot plate stimulus; dose 40 mg/kg, time 60 min.): 100%
CCC[C@@H](NC(=O)[C@@H](N)Cc1ccc(O)cc1)C(=O)N[C@@H](Cc1ccccc1)C(=O)N[C@@H](CCCN)C(N)=O [BCH-752, H-Tyr-D-Nva-Phe-Orn-NH2] (H-Y[dNva]F[Orn]-NH2) | 271 ± 63 nM | 104 ± 15 nM | 0.2 mg/kg | partially or totally antagonized | 1.55 ± 0.23 nm | 122 ± 14 breaths per min. | 2200 nM | 0.0420 ± 0.0098 | 2.36 ± 0.33 | 2.61 | – | – | 1880 | – | Hot plate ED50 (hot plate stimulus): 5.2 mg/kg; ratio of ED50 for PBQ assay over ED50 for the hot plate assay (hot plate stimulus): 26; Ki (μ-opioid receptor; read-out: [3H]DAGO Ki^μ): 1.17 nM
N=C(N)NCCC[C@@H](NC(=O)[C@@H](N)Cc1ccc(O)cc1)C(=O)N[C@@H](Cc1ccccc1)C(=O)N[C@@H](CCCN)C(N)=O [BCH-1765, H-Tyr-D-Arg-Phe-Orn-NH2] | 1090 ± 279 nM | 346 ± 121 nM | < 1 mg/kg | – | 1.24 ± 0.12 nm | – | 9290 nM | 0.0105 ± 0.0027 | 0.712 ± 0.249 | 3.15 | – | – | 7740 | 100% | Ki (μ-opioid receptor; read-out: [3H]DAGO Ki^μ): 1.2 nM
H-Tyr-D-Ala-Gly-Phe(NMe)-Gly-ol [DAGO, reference compound] | 950 ± 269 nM | 28 ± 3.7 nM | – | – | 0.800 ± 0.100 nm | – | – | – | – | – | – | – | – | – | –
CC(C)[C@@H](NC(=O)[C@@H](N)Cc1ccc(O)cc1)C(=O)N[C@@H](Cc1ccccc1)C(=O)N[C@@H](CCCCN)C(N)=O [BCH-2206, H-Tyr-D-Val-Phe-Lys-NH2] (H-Y[dV]FK-NH2) | – | – | 4.8 mg/kg | – | – | 168 ± 13 breaths per min. | – | – | – | – | > 2530 nM | 6.58 nM | > 384 | 30% | % of animals showing a 50% increase (hot plate stimulus; dose 100 mg/kg, time 120 min.): 90%
C[C@@H](NC(=O)[C@@H](N)Cc1ccc(O)cc1)C(=O)N[C@@H](Cc1ccccc1)C(=O)N[C@@H](CCCCN)C(N)=O [BCH-1789, H-Tyr-D-Ala-Phe-Lys-NH2] (H-Y[dA]FK-NH2) | – | – | 0.6 mg/kg | – | – | 182 ± 24 breaths per min. | – | – | – | – | 4430 nM | 33.3 nM | 133 | 40% | % of animals showing a 50% increase (hot plate stimulus; dose 100 mg/kg, time 60 min.): 80%
CCC[C@@H](NC(=O)[C@@H](N)Cc1ccc(O)cc1)C(=O)N[C@@H](Cc1ccccc1)C(=O)N[C@@H](CCCCN)C(N)=O [BCH-2200, H-Tyr-D-Nva-Phe-Lys-NH2] (H-Y[dNva]FK-NH2) | – | – | 0.3 mg/kg | partially or totally antagonized | – | – | – | – | – | – | > 2530 nM | 2.27 nM | > 1110 | – | –
CCCC[C@@H](NC(=O)[C@@H](N)Cc1ccc(O)cc1)C(=O)N[C@@H](Cc1ccccc1)C(=O)N[C@@H](CCCN)C(N)=O [BCH-1763, H-Tyr-D-Nle-Phe-Orn-NH2] (H-Y[dNle]F[Orn]-NH2) | 2290 ± 270 nM | 168 ± 33 nM | 0.3 mg/kg | – | 1.01 ± 0.18 nm | 162 ± 10 breaths per min. | 2870 nM | 0.00498 ± 0.00058 | 1.46 ± 0.29 | 13.6 | – | – | 2130 | 90% | Ki (μ-opioid receptor; read-out: [3H]DAGO Ki^μ): 1.35 nM
CCC[C@H](NC(=O)[C@H](Cc1ccccc1)NC(=O)[C@@H](CCCNC(=N)N)NC(=O)[C@@H](N)Cc1ccc(O)cc1)C(N)=O [BCH-1788, H-Tyr-D-Arg-Phe-Nva-NH2] (H-Y[dR]F[Nva]-NH2) | – | – | 1.3 mg/kg | – | – | 163 ± 9 breaths per min. | – | – | – | – | > 2530 nM | 11.7 nM | > 216 | – | % of animals showing a 50% increase (hot plate stimulus; dose 40 mg/kg, time 60 min.): 45%; % of animals showing a 50% increase (hot plate stimulus; dose 100 mg/kg, time 60 min.): 60%; Breaths per min. ([5]; dose 100 mg/kg): 125 ± 4 breaths per min.
CC(C)C[C@H](NC(=O)[C@H](Cc1ccccc1)NC(=O)CNC(=O)CNC(=O)[C@@H](N)Cc1ccc(O)cc1)C(=O)O [Leu-enkephalin, [Leu^5]enkephalin, reference compound] | – | – | – | – | 1.53 ± 0.43 nm | – | – | – | – | – | – | – | – | – | –
CN1CC[C@]23c4c5ccc(O)c4O[C@H]2[C@@H](O)C=C[C@H]3[C@H]1C5 [morphine, reference compound] | – | – | – | not antagonized | – | 104 ± 6 breaths per min. | – | – | – | – | – | – | – | – | ED50 (hot plate stimulus; Mus musculus): 2.7 mg/kg; ratio of ED50 for PBQ assay over ED50 for the hot plate assay (hot plate stimulus): 4.5; ED50 (PBQ-induced writhing [2]; Mus musculus, 20 min, read-out: PBQ (20 min.) ED50, dose reducing the number of writhes by 50%): 0.6 mg/kg
